The values below come from ChEMBL document CHEMBL4049438, “Discovery and Optimization of Isoquinoline Ethyl Ureas as Antibacterial Agents” (J Med Chem, 2017).

In brackets after ≈: the same amount, converted by molar mass.

A short description of data set [1]: Octanol-phosphate buffer partition coefficient, logD of compound at pH 7.4 by LC/UV analysis. The format is physicochemical.
Data set [2] is described as follows: Inhibition of Staphylococcus aureus topoisomerase 4 subunit ParC/ParE relaxation expressed in Escherichia coli BL21 (DE3) using supercoiled pBR322 DNA as substrate after 1 hr by agarose gel electrophoresis.
The target in the next data set is hERG (KCNH2) (Homo sapiens, UniProt Q12809). As to the kind of experiment: Inhibition of human ERG expressed in CHO cells at 10 uM after 3 mins at -80 mV holding potential by Qpatch assay. The conditions noted are these: CHO cells expressing human ERG. It counts as cell-based. A general note: The patch-clamp technique gives a direct electrical read-out from membranes.

For data set [3], the system named is Staphylococcus aureus. As to the kind of experiment: Antibacterial activity against Staphylococcus aureus ATCC 29213 by broth microdilution method. The format is functional.
In the next data set the target is DNA gyrase (Staphylococcus aureus, UniProt P0A0K8+P20831).
A short description of data set [4]: Dissociation constant, pKa of the compound by pH metric assay. The format is physicochemical.
Data set [5] has as its system Staphylococcus aureus. Put plainly: Antibacterial activity against methicillin-sensitive Staphylococcus aureus A-1178 infected in neutropenic murine thigh infection model assessed as decrease in bacterial load in thighs administered po 22 hrs post infection measured 24 hrs post infection. It counts as functional, organism-based.
The next data set has as its system Mus musculus. Put plainly: Unbound AUC in mouse at 100 mg/kg, po after 24 hrs by LC-MS/MS analysis. The conditions noted are these: in vivo. The format is ADME, organism-based.
In data set [6] the test system is Staphylococcus aureus. Put plainly: Antibacterial activity against methicillin-sensitive Staphylococcus aureus A-1178 by broth microdilution method. It counts as functional. (In broth dilution the organism is exposed to a series of concentrations in liquid medium.)
Data set [7] deals with Staphylococcus aureus. As to the kind of experiment: Antibacterial activity against methicillin-sensitive Staphylococcus aureus A-1178 infected in neutropenic mouse assessed as change in bacterial burden in thighs at 30 mg/kg, po administered every 2.75 hrs for 2 times measured 6.5 hrs post infection. The format is functional.
Data set [8] in a line: AUC in mouse at 100 mg/kg, po after 24 hrs by LC-MS/MS analysis. It counts as ADME, organism-based. Also noted: time < 24 hr, dose 100 mg/kg, route oral. The note with it: in vivo.
The nature of data set [9]: Protein binding to mouse plasma by rapid equilibrium dialysis method. It counts as ADME, cell-free. The note with it: read-out: PPB (converted).
Data set [10] in a line: Inhibition of Streptococcus pneumoniae DNA topoisomerase 4 subunit ParC/ParE relaxation expressed in Escherichia coli BL21 (DE3) using supercoiled pBR322 DNA as substrate after 1 hr mins by agarose gel electrophoresis.
Another data set deals with Haemophilus influenzae. Put plainly: Antibacterial activity against Haemophilus influenzae A-921 by broth microdilution method. It counts as functional.
The nature of data set [11]: Inhibition of Escherichia coli DNA gyrase subunit GyrA/GyrB R136H mutant supercoiling activity expressed in Escherichia coli BL21 (DE3) using relaxed pBR322 DNA as substrate after 1 hr mins by agarose gel electrophoresis.
A short description of data set [12]: Inhibition of fluoroquinolone-resistant Staphylococcus aureus clinical isolate DNA gyrase subunit GyrB/GyrA S84L mutant supercoiling activity using relaxed pBR322 DNA as substrate after 1 hr by agarose gel electrophoresis.
Data set [13] in a line: Inhibition of Escherichia coli N-terminal His6-tagged DNA gyrase subunit GyrA/GyrB supercoiling activity expressed in Escherichia coli BL21 (DE3) using relaxed pBR322 DNA as substrate after 1 hr by agarose gel electrophoresis.
Data set [14] deals with Escherichia coli. Put plainly: Antibacterial activity against TolC deficient Escherichia coli by broth microdilution method. It counts as functional.
In data set [15] the test system is Staphylococcus aureus. Put plainly: Antibacterial activity against methicillin/fluoroquinolone-resistant Staphylococcus aureus A-798 harboring topoisomerase gyrA S84L mutant/grlA S80F/Glu84V mutant by broth microdilution method. The format is functional.
Another data set relates to Enterococcus faecalis. As to the kind of experiment: Antibacterial activity against Enterococcus faecalis ATCC 29212 by broth microdilution method. It counts as functional.
A further data set deals with Enterococcus faecium. As to the kind of experiment: Antibacterial activity against vancomycin/fluoroquinolone-resistant Enterococcus faecium A-949 harboring topoisomerase gyrA E88K mutant/parC S80R mutant by broth microdilution method. It counts as functional.
For data set [16], the system named is Escherichia coli. As to the kind of experiment: Antibacterial activity against Escherichia coli ATCC 25922 by broth microdilution method. The format is functional.
The subject of data set [17] is Streptococcus pneumoniae. Put plainly: Antibacterial activity against fluoroquinolone-resistant Streptococcus pneumoniae A-70 harboring topoisomerase gyrA S81F mutant/parc S79F mutant/parE I440V mutant by broth microdilution method. The format is functional.
The next data set has as its system Streptococcus pyogenes. As to the kind of experiment: Antibacterial activity against Streptococcus pyogenes ATCC 19615 by broth microdilution method. It counts as functional.
In a further data set the test system is Moraxella catarrhalis. Put plainly: Antibacterial activity against Moraxella catarrhalis A-894 by broth microdilution method. It counts as functional.
A short description of data set [18]: Inhibition of Haemophilus influenzae DNA gyrase subunit GyrA/GyrB supercoiling activity expressed in Escherichia coli BL21 (DE3) using relaxed pBR322 DNA as substrate after 1 hr mins by agarose gel electrophoresis.
A short description of data set [19]: Inhibition of Streptococcus pneumoniae DNA gyrase subunit GyrA/GyrB supercoiling activity expressed in Escherichia coli BL21 (DE3) using relaxed pBR322 DNA as substrate after 1 hr mins by agarose gel electrophoresis.
Data set [20] can be described thus: Inhibition of Haemophilus influenzae DNA topoisomerase 4 subunit ParC/ParE relaxation expressed in Escherichia coli BL21 (DE3) using supercoiled pBR322 DNA as substrate after 1 hr mins by agarose gel electrophoresis.
Data set [21] is described as follows: Inhibition of Escherichia coli DNA topoisomerase 4 subunit ParC/ParE relaxation expressed in Escherichia coli BL21 (DE3) using supercoiled pBR322 DNA as substrate after 1 hr by agarose gel electrophoresis.
For data set [22], the target named is DNA topoisomerase 2-alpha (Homo sapiens, UniProt P11388). Put plainly: Inhibition of human DNA topoisomerase 2-alpha.
The subject of data set [23] is Streptococcus pneumoniae. Put plainly: Antibacterial activity against Streptococcus pneumoniae ATCC 49619 by broth microdilution method. It counts as functional.
Data set [24] is described as follows: Inhibition of Escherichia coli N-terminal His6-tagged DNA gyrase subunit GyrA/GyrB ATPase activity expressed in Escherichia coli BL21 (DE3) after 40 mins by spectrophotometric analysis.

The term logD denotes lipophilicity at a set pH, counting ionised and neutral species. High values mean a more lipophilic compound, low ones a more hydrophilic compound. As a reminder, the IC50 is the point on the concentration scale where inhibition reaches its midpoint. By inhibition is commonly meant the change of the read-out against control, counted positive when it falls. A high value points to a strong effect. For orientation: pKa means the negative logarithm of the acid dissociation constant. For the molecule `CCNC(=O)Nc1cc2c(-c3ccnc(C)c3)ccc(COC(=O)N3CCN(CC4CC4)CC3)c2cn1.Cl`, the logD in [1] stood at 3.6. The IC50 in data set [2] stood at 500 nM; at DNA gyrase, 8 nM. The same molecule gave an inhibition at 0.05 h, 10 µM on hERG (KCNH2) of 74%. The molecule further yielded an MIC against Staphylococcus aureus [3] of 1 µg/mL. Also, the pKa in data set [4] was 7.4.

On to `CC(=O)NC[C@H]1CN(c2ccc(N3CCOCC3)c(F)c2)C(=O)O1`, for which, in the data set with Staphylococcus aureus [5], the Activity result was “Dose-dependent effect”.

Broadly, the AUC is the area under the concentration-time curve, a measure of exposure. A lower AUC goes with less exposure. In the data set on Mus musculus, `CCNC(=O)Nc1cc2c(-c3ccnc(C)c3)ccc(COC(=O)N3CCN(C)CC3)c2cn1` had a fAUC of 480 ng·h/mL. The molecule further returned a logD in data set [1] of 3.1. For the same molecule, the IC50 in [2] is 500 nM; at DNA gyrase it was 8 nM. For the same molecule, the MIC against Staphylococcus aureus [6] and with Staphylococcus aureus [3] was 0.5 µg/mL (≈ 1.08 µM) each time. For the same molecule, the Activity in the data set on Staphylococcus aureus [7] was -0.3 deltalog10CFU. Further, the exposure (AUC) at 24 h in data set [8] is 9200 ng·h/mL. Further, the fraction unbound in [9] is 0.052. On hERG (KCNH2), this molecule came in with an inhibition at 0.05 h, 10 µM of 15%. In data set [4], this molecule gave a pKa of 7.

`CCNC(=O)Nc1cc2c(-c3ccncc3)ccc(CNC(=O)OCCNCC(C)(C)C)c2cn1` displayed a logD in data set [1] of 2.6. Moreover, the concentration for half-maximal inhibition (IC50) was 8000 nM in data set [2] and 8 nM against DNA gyrase. In addition, the inhibition at 0.05 h, 10 µM at hERG (KCNH2) was determined as 25%. The same molecule displayed an MIC against Staphylococcus aureus [3] of 4 µg/mL (≈ 8.36 µM). In [4], this molecule registered a pKa of 8.7.

Consider `C#CCOC(=O)NCc1ccc(-c2ccnc(C)c2)c2cc(NC(=O)NCC)ncc12`, for which the IC50 in data set [10] is 125 nM; in data set [11] it was 30 nM; in data set [12] it was less than 4 nM; in data set [13], 30 nM; in data set [2] it was 2000 nM; in data set [18], 30 nM. Further, the IC50 was 2000 nM in data set [19]; 2000 nM in [20]; 8 nM on DNA gyrase; 8000 nM in [21]; more than 256000 nM in [22]. In addition, the MIC is 1 µg/mL (≈ 2.4 µM) against Haemophilus influenzae; 0.5 µg/mL (≈ 1.2 µM) in the data set with Escherichia coli [14]; not above 0.03 µg/mL in the data set with Staphylococcus aureus [15]; 0.25 µg/mL (≈ 0.599 µM) against Enterococcus faecalis; 1 µg/mL (≈ 2.4 µM) in the data set on Enterococcus faecium; more than 16 µg/mL in the data set with Escherichia coli [16]. For the same molecule, the MIC in the data set on Streptococcus pneumoniae [17] is 0.5 µg/mL (≈ 1.2 µM); in the data set with Streptococcus pyogenes, 0.25 µg/mL (≈ 0.599 µM); against Moraxella catarrhalis, 0.25 µg/mL (≈ 0.599 µM); in the data set on Staphylococcus aureus [3] it was not above 0.03 µg/mL; against Streptococcus pneumoniae [23], 0.5 µg/mL (≈ 1.2 µM). Moreover, the Activity in the data set with Staphylococcus aureus [7] is on record as -3.9 deltalog10CFU.

In data set [1], `CCNC(=O)Nc1cc2c(-c3ccncc3)ccc(CNC(=O)OCCN3CCOCC3)c2cn1.Cl` had a pH-dependent lipophilicity (logD) of 2.3. In addition, the IC50 in data set [2] is 500 nM; on DNA gyrase it was less than 4 nM. This molecule also came in with an inhibition at 0.05 h, 10 µM against hERG (KCNH2) of 0%. The same molecule gave an MIC against Staphylococcus aureus [3] of 4 µg/mL. In [4], this molecule registered a pKa of 6.3.

Turning to `CCNC(=O)Nc1cc2c(-c3ccncc3)ccc(C)c2cn1`, the IC50 in data set [10] was 500 nM; in data set [11], 125 nM; in [12] it was 30 nM; in data set [13], 125 nM; in [2], 8000 nM; in [24], less than 200 nM. The half-inhibitory concentration (IC50) was 125 nM in [18]; 2000 nM in data set [19]; 8000 nM in data set [20]; 30 nM against DNA gyrase; 8000 nM in data set [21]; more than 256000 nM in [22]. Moreover, the MIC is 4 µg/mL (≈ 13.1 µM) against Haemophilus influenzae; 2 µg/mL (≈ 6.53 µM) against Escherichia coli [14]; 0.5 µg/mL (≈ 1.63 µM) in the data set with Staphylococcus aureus [15]; 0.25 µg/mL (≈ 0.816 µM) with Enterococcus faecalis; 1 µg/mL (≈ 3.26 µM) with Enterococcus faecium; more than 16 µg/mL against Escherichia coli [16]. Besides, the MIC was 1 µg/mL (≈ 3.26 µM) in the data set with Streptococcus pneumoniae [17]; 4 µg/mL (≈ 13.1 µM) with Streptococcus pyogenes; 0.5 µg/mL (≈ 1.63 µM) against Moraxella catarrhalis; 0.5 µg/mL (≈ 1.63 µM) against Staphylococcus aureus [3]; 1 µg/mL (≈ 3.26 µM) against Streptococcus pneumoniae [23]. In addition, the Activity with Staphylococcus aureus [7] is -1.3 deltalog10CFU.
